Results published in patent publication US10519134B2, “Pyrazole compounds and methods of making and using same” (Lundbeck La Jolla Research Center, Inc., priority 2015, dated 2019).

Tests used:
[1] = target: T1, FAAH (Mus musculus, UniProt O08914); test: In vitro competitive activity-based protein profiling (mouse), FAAH gel band; format: biochemical; settings: for inhibition at 1 µM: read-out: FAAH % inh. 1 μM; for IC50: mouse
T1 construct: Proteomes (mouse brain membrane fraction or cell lysates); from tissue; host or cells: mouse brain membrane fraction (or cell lysates)
T1 sequence (O08914 1-579): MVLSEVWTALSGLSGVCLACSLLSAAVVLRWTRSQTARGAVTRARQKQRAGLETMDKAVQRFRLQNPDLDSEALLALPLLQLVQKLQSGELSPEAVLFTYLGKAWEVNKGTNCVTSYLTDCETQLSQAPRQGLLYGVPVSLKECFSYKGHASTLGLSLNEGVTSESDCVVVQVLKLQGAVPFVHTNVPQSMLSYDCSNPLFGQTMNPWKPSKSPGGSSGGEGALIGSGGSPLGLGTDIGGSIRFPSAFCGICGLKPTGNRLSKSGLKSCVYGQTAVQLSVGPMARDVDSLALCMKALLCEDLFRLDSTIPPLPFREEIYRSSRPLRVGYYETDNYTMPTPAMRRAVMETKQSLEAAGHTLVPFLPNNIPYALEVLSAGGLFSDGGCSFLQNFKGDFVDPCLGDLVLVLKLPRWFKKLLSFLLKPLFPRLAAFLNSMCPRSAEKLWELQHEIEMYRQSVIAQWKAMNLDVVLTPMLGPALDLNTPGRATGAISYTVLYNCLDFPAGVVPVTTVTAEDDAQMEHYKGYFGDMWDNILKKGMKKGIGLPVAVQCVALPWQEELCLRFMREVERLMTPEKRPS
Method: (§1) In Vitro Competitive Activity-Based Protein Profiling (Mouse).
(§2) Proteomes (mouse brain membrane fraction or cell lysates) (50 μL, 1.0 mg/mL total protein concentration) were preincubated with varying concentrations of inhibitors at 37° C. After 30 min, FP-Rh or HT-01 (1.0 μL, 50 μM in DMSO) was added and the mixture was incubated for another 30 min at 37° C. Reactions were quenched with SDS loading buffer (15 μL—4×) and run on SDS-PAGE. Following gel imaging, serine hydrolase activity was determined by measuring fluorescent intensity of gel bands corresponding to MAGL, ABHD6, and FAAH, using ImageJ 1.43u software.

[2] = target: T2, MAGL (Mus musculus, UniProt O35678); test: In vitro competitive activity-based protein profiling (mouse), MAGL gel band; format: biochemical; settings: for inhibition at 1 µM: read-out: MAGL % inh. 1 μM; for IC50: mouse
T2 construct: Proteomes (mouse brain membrane fraction or cell lysates); from tissue; host or cells: mouse brain membrane fraction (or cell lysates)
T2 sequence (O35678 1-303): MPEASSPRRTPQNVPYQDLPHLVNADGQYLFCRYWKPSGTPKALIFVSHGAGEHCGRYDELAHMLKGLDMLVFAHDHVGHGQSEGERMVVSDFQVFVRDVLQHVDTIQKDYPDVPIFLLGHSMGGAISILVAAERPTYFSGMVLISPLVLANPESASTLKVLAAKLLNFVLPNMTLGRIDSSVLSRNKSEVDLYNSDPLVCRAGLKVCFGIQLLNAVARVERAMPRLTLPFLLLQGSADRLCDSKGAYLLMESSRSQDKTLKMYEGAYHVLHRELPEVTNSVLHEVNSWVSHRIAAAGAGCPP
Method: as §1, §2

inhibition at 1 µM [1] | inhibition at 1 µM [2] | IC50 [1] | IC50 [2] | SMILES
0 to 25% | 25 to 50% |  |  | CC(=O)N1CCN(c2cc(CN3CCN(C(=O)n4ccc(NS(C)(=O)=O)n4)CC3)cc(C(F)(F)F)c2)CC1 [Example 251, N-(1-(4-(3-(4-acetylpiperazin-1-yl)-5-(trifluoromethyl)benzyl)piperazine-1-carbonyl)-1H-pyrazol-3-yl) methanesulfonamide]
0 to 25% | ≥ 75% | 1000 to 10000 nM | 100 to 1000 nM | CC(=O)Nc1ccn(C(=O)N2CCC3(CCCN3Cc3ccc(C(F)(F)F)cc3N3CCN(S(C)(=O)=O)CC3)CC2)n1 [Example 21, N-(1-(1-(2-(4-(methylsulfonyl)piperazin-1-yl)-4-(trifluoromethyl)benzyl)-1,8-diazaspiro[4.5]decane-8-carbonyl)-1H-pyrazol-3-yl)acetamide]
0 to 25% | 50 to 75% |  |  | CS(=O)(=O)Nc1ccn(C(=O)N2CCC3(CCCN3Cc3ccc(Cl)cc3N3CCCCC3)CC2)n1 [Example 132, N-(1-(1-(4-chloro-2-(piperidin-1-yl)benzyl)-1,8-diazaspiro[4.5]decane-8-carbonyl)-1H-pyrazol-3-yl)methanesulfonamide]
0 to 25% | 50 to 75% |  |  | CC(=O)Nc1ccn(C(=O)N2CCC3(CCCN3Cc3ccc4[nH]cnc4c3)CC2)n1 [Example 253, N-(1-(1-((1H-benzo[d]imidazol-5-yl)methyl)-1,8-diazaspiro[4.5]decane-8-carbonyl)-1H-pyrazol-3-yl)acetamide]
0 to 25% | ≥ 75% | 1000 to 10000 nM | 100 to 1000 nM | CS(=O)(=O)Nc1ccn(C(=O)N2CCC3(CCCN3Cc3cccc(N4CC5CCC(C4)O5)c3Cl)CC2)n1 [Example 145, N-(1-(1-(3-(8-oxa-3-azabicyclo[3.2.1]octan-3-yl)-2-chlorobenzyl)-1,8-diazaspiro[4.5]decane-8-carbonyl)-1H-pyrazol-3-yl) methanesulfonamide]
0 to 25% | 50 to 75% |  |  | CC(=O)Nc1ccn(C(=O)N2CCC3(CCCN3Cc3ccc(C(F)(F)F)c(C(=O)O)c3)CC2)n1 [Example 108, 5-((8-(3-acetamido-1H-pyrazole-1-carbonyl)-1,8-diazaspiro[4.5]decan-1-yl)methyl)-2-(trifluoromethyl)benzoic Acid]
0 to 25% | 25 to 50% |  |  | CN1CCC(Oc2cc(CN3CCN(C(=O)n4ccc(NS(C)(=O)=O)n4)CC3)ccc2Cl)CC1 [Example 220, N-(1-(4-(4-chloro-3-((1-methylpiperidin-4-yl)oxy)benzyl)piperazine-1-carbonyl)-1H-pyrazol-3-yl) methanesulfonamide]
0 to 25% | ≥ 75% | 1000 to 10000 nM | ≤ 100 nM | CC(=O)Nc1ccn(C(=O)N2CCN(Cc3ccc(Cl)cc3N3CCC(F)(F)CC3)CC2)n1 [Example 57, N-(1-(4-(4-chloro-2-(4,4-difluoropiperidin-1-yl)benzyl)piperazine-1-carbonyl)-1H-pyrazol-3-yl)acetamide]
0 to 25% | 0 to 25% |  |  | CS(=O)(=O)Nc1ccn(C(=O)N2CCC3(CCCN3Cc3cc(N4CCC(C(=O)O)C4)cc(C(F)(F)F)c3)CC2)n1 (centres unmarked) [Example 247, 1-(3-((8-(3-(methylsulfonamido)-1H-pyrazole-1-carbonyl)-1,8-diazaspiro[4.5]decan-1-yl)methyl)-5-(trifluoromethyl)phenyl)pyrrolidine-3-carboxylic acid]
0 to 25% | ≥ 75% |  |  | CS(=O)(=O)Nc1ccn(C(=O)N2CCC3(CCCN3Cc3cc(N4CCOCC4)cc(C(F)(F)F)c3)CC2)n1 [Example 162, N-(1-(1-(3-morpholino-5-(trifluoromethyl)benzyl)-1,8-diazaspiro[4.5]decane-8-carbonyl)-1H-pyrazol-3-yl) methanesulfonamide]
0 to 25% | ≥ 75% | 1000 to 10000 nM | 100 to 1000 nM | CC(=O)N(C)c1ccn(C(=O)N2CCN(Cc3cc(N4CCCC4)cc(C(F)(F)F)c3)CC2)n1 [Example 70, N-methyl-N-(1-(4-(3-(pyrrolidin-1-yl)-5-(trifluoromethyl)benzyl)piperazine-1-carbonyl)-1H-pyrazol-3-yl)acetamide]
0 to 25% | ≥ 75% |  |  | CC(C)(O)C1CCN(c2cc(CN3CCN(C(=O)n4ccc(NS(C)(=O)=O)n4)CC3)ccc2C(F)(F)F)CC1 [Example 280, N-(1-(4-(3-(4-(2-hydroxypropan-2-yl)piperidin-1-yl)-4-(trifluoromethyl)benzyl)piperazine-1-carbonyl)-1H-pyrazol-3-yl) methanesulfonamide]
0 to 25% | ≥ 75% | 1000 to 10000 nM | 100 to 1000 nM | Cc1ccc(CN2CCN(C(=O)n3ccc(NS(C)(=O)=O)n3)CC2)c(N2CCCCC2)c1 [Example 138, N-(1-(4-(4-methyl-2-(piperidin-1-yl)benzyl)piperazine-1-carbonyl)-1H-pyrazol-3-yl) methanesulfonamide]
0 to 25% | ≥ 75% |  |  | CS(=O)(=O)Nc1ccn(C(=O)N2CCN(Cc3ccc(Cl)c(N4CCN(S(C)(=O)=O)CC4)c3)CC2)n1 [Example 282, N-(1-(4-(4-chloro-3-(4-(methylsulfonyl)piperazin-1-yl)benzyl)piperazine-1-carbonyl)-1H-pyrazol-3-yl) methanesulfonamide]
0 to 25% | 0 to 25% |  |  | CS(=O)(=O)Nc1ccn(C(=O)N2CCN(Cc3cc(N4CCC(C(=O)O)CC4)cc(C(F)(F)F)c3)CC2)n1 [Example 242, 1-(3-((4-(3-(methylsulfonamido)-1H-pyrazole-1-carbonyl)piperazin-1-yl)methyl)-5-(trifluoromethyl)phenyl)piperidine-4-carboxylic acid]
0 to 25% | 50 to 75% |  |  | CC(=O)N1CC2(CCN(c3ccccc3CN3CCN(C(=O)n4ccc(NS(C)(=O)=O)n4)CC3)C2)C1 [Example 122, N-(1-(4-(2-(2-acetyl-2,6-diazaspiro[3.4]octan-6-yl)benzyl)piperazine-1-carbonyl)-1H-pyrazol-3-yl) methanesulfonamide]
0 to 25% | 50 to 75% |  |  | CS(=O)(=O)Nc1ccn(C(=O)N2CCN(Cc3cc(N4CCOCC4)ccc3C(F)(F)F)CC2)n1 [Example 181, N-(1-(4-(5-morpholino-2-(trifluoromethyl)benzyl)piperazine-1-carbonyl)-1H-pyrazol-3-yl) methanesulfonamide]
0 to 25% | ≥ 75% |  |  | CS(=O)(=O)Nc1ccn(C(=O)N2CCN(Cc3cc(Cl)cc(C(F)(F)F)c3)CC2)n1 [Example 176, N-(1-(4-(3-chloro-5-(trifluoromethyl)benzyl)piperazine-1-carbonyl)-1H-pyrazol-3-yl) methanesulfonamide]
≥ 75% | ≥ 75% | 100 to 1000 nM | ≤ 100 nM | CS(=O)(=O)Nc1ccn(C(=O)N2CCN(Cc3ccc(-c4ccccc4)cc3Cl)CC2)n1 [Example 158, N-(1-(4-((3-chloro-[1,1′-biphenyl]-4-yl)methyl)piperazine-1-carbonyl)-1H-pyrazol-3-yl) methanesulfonamide]

SMILES | inhibition at 1 µM [1] | inhibition at 1 µM [2] | IC50 [1] | IC50 [2]
CC(=O)Nc1ccn(C(=O)N2CCC3(CCCN3Cc3cc(Cl)cc(N4C5CCC4COC5)c3)CC2)n1 [Example 64, N-(1-(1-(3-(3-oxa-8-azabicyclo[3.2.1]octan-8-yl)-5-chlorobenzyl)-1,8-diazaspiro[4.5]decane-8-carbonyl)-1H-pyrazol-3-yl)acetamide] | 0 to 25% | ≥ 75% | 1000 to 10000 nM | ≤ 100 nM
CC(=O)N(C)c1ccn(C(=O)N2CCC3(CCCN3Cc3cc(N4C5CCC4COC5)cc(C(F)(F)F)c3)CC2)n1 [Example 67, N-(1-(1-(3-(3-oxa-8-azabicyclo[3.2.1]octan-8-yl)-5-(trifluoromethyl)benzyl)-1,8-diazaspiro[4.5]decane-8-carbonyl)-1H-pyrazol-3-yl)-N-methylacetamide] | 0 to 25% | 0 to 25% |  | 
